“Also recorded” adds a separate entry of the source.

Series [1] has as its system HDAC6. In words: acetylated α-tubulin and HDAC6 immunofluorescence in control (Neo) and HDAC6-overexpressing fibroblasts. Particulars: tubacin 2 μM, 4 h. It counts as cell-based, mouse.
Experimental: All cells were cultured at 37° C. in a humidified incubator supplemented with 5% carbon dioxide. […] Mouse NIH-3T3 wild-type (Neo), HDAC6, HDAC6 double mutant, and HDAC1 overexpressing cells (gift from C. Hubbert, Duke University) were cultured as described (C. Hubbert et al., Nature 417, 455 (2002)1).
Detection of acetylated α-tubulin and acetylated histones by immunofluorescence was performed as described in Example 6 above. […] HDAC6 was detected using a rabbit polyclonal antibody (1:250-1:750; C.M.G., unpublished data) under the conditions used to detect acetylated α-tubulin (See Example 6 above). […] Images for these experiments were collected on a Zeiss LSM510 confocal scanning laser microscope at the appropriate wavelengths using the accompanying software and processed with Adobe Photoshop.
Series [2] has as its system rat hippocampal neurons and astrocytes. In words: cultured rat hippocampal neurons and astrocytes: viability, acetylated α-tubulin, synaptotagmin. It is filed as cell-based. On the procedure:
All cells were cultured at 37° C. in a humidified incubator supplemented with 5% carbon dioxide. Human A549 lung carcinoma cells, Human HT-1080 fibrosarcoma cells, BSC-1 African green monkey kidney epithelial cells (all from American Tissue Culture Collection) were cultured in Dulbecco's modified eagle medium (DMEM) supplemented with 10% fetal bovine serum, 100 units/mL penicillin G sodium, 100 μg/mL streptomycin sulfate, and 2 mM L-glutamine (DMEM+). Human TAg Jurkat cells and mouse ROSA26 embryonic stem cells (gift of E. Roberston, Harvard University) were cultured as described (12). Mouse NIH-3T3 wild-type (Neo), HDAC6, HDAC6 double mutant, and HDAC1 overexpressing cells (gift from C. Hubbert, Duke University) were cultured as described (C. Hubbert et al., Nature 417, 455 (2002)1). Hippocampal neurons were dissociated from 1-day old rats and grown in culture using methods as described (E. N. Star, D. J. Kwiatkowski and V. N. Murthy, Nat. Neurosci. 5, 239 (2002)). All animal experiments were approved by Harvard University's standing committee on the use of animals in research and training.
Detection of acetylated α-tubulin and acetylated histones by immunofluorescence was performed as described in Example 6 above. […] For co-localization experiments, biotubacin (50 μM) treated A549 cells were fixed in 3.7% formaldehyde in TBS and processed as for detecting acetylated α-tubulin (See Example 6 above) with biotubacin detected using streptavidin-TR (1:500). HDAC6 was detected using a rabbit polyclonal antibody (1:250-1:750; C.M.G., unpublished data) under the conditions used to detect acetylated α-tubulin (See Example 6 above). Filamentous actin in HT-1080 cells was detected using TR-conjugated phalloidin (1 μg/mL), and depolymerized actin using FITC-conjugated deoxyribonuclease (10 μg/mL), following fixation in 3.7% formaldehyde in TBS. p58 (1:100) in NIH-3T3 cells was detected after fixation in 3.7% formaldehyde in TBS. […]

Series [3] deals with NIH-3T3 cells. In words: Transwell cell migration assay. It counts as cell-based, mouse. Particulars: wild-type (Neo) and HDAC6-overexpressing cells, 22 h; tubacin 2-20 μM, niltubacin 20 μM. Here is the method:
For Transwell migration assays, wild-type or HDAC6 overexpressing NIH-3T3 cells were seeded (150,000 cells/well) in the upper chamber (uncoated polycarbonate membrane, 6.5 mm, 8 μm) in DMEM+ media with compounds added as indicated. After incubation (22 hours), non-migrated cells were removed using cotton swabs and remaining cells stained in Harris Hematoxylin solution. For each treatment, cells within a region (spanning the maximum diameter) of three separate membranes were counted under low magnification on a Leitz Laborlux microscope. For DMSO treatments the average count was ˜600 cells/region. Images were obtained using a Hitachi HV-C12 CCD camera.

`O=C(CCCCCCC(=O)Nc1ccc([C@@H]2OC(c3ccc(CO)cc3)C[C@H](CSc3nc(-c4ccccc4)c(-c4ccccc4)o3)O2)cc1)NO` (stereo partly drawn) [tubacin]: in series [1] (NIH-3T3 (Neo)), the “co-localization of HDAC6 with acetylated microtubules” value was “Increased co-localization of HDAC6 with acetylated α-tubulin; also recorded: caused an increase in the co-localization of HDAC6 along acetylated microtubules”. Further, the “α-tubulin acetylation in control (Neo) versus HDAC6-overexpressing NIH-3T3 cells” value in series [1] is “Decreased α-tubulin acetylation upon tubacin (2 μM) treatment (4 h) of HDAC6 overexpressing compared to control (Neo) NIH-3T3 cells; also recorded: induced an increase in α-tubulin acetylation; also recorded: decreased tubucin-induced α-tubulin acetylation”. Besides, the “viability and morphology of neurons and astrocytes” value in series [2] (7-day old cultures: greater than 5 μM (10 μM, 48 h), 10-day old cultures: 1-2 μM, 96 h) was “decreased the viability and staining with synaptotagmin; also recorded: had no affect on the viability of 10-day old neurons and astrocytes; also recorded: caused morphological changes and cell death; also recorded: did not cause a significant decrease in the number of 10-day old rat hippocampal neurons or astrocytes”. Also, the “α-tubulin acetylation in neurons and astrocytes” value in series [2] (tubacin 1 μM 96 h or 10 μM 48 h, niltubacin 5 μM) was “increased the acetylation of α-tubulin; also recorded: increased α-tubulin acetylation in both cell types”. Besides, the “synaptotagmin staining / synapses” value in series [2] (tubacin at least 1 μM for four days or 10 μM 48 h, niltubacin 5 μM) is “decreased the viability and staining with synaptotagmin; also recorded: had fewer synapses when compared to control cells”. For the same compound, the cell migration entry in series [3] was “inhibited the migration of wild-type (Neo) NIH-3T3 cells; also recorded: inhibited the migration of both wild-type and HDAC6-overexpressing cells”.

For the origin of these results see patent publication US8178579B2, “Dioxanes and uses thereof” (President and Fellows of Harvard College, priority 2001, dated 2012).
